In patent publication US11524966B1 (Valo Early Discovery, Inc., priority 2017, dated 2022):

The compounds below were run against T1, USP28 (His-tagged USP28-FL-mammalian) (Homo sapiens, UniProt Q96RU2) (assay: Ubiquitin-Rhodamine 110 Assay for USP28 Activity, Example A-1(a)). Conditions: Ubiquitin-Rhodamine 110 assay, Example A-1(a); read-out: USP28 A-1(a) IC50 range.
T1 construct: Expression of USP28 (1-1077)-TEV-6*His (pTT5 vector); made in house; host or cells: Expi293f cells (pTT5 vector)
T1 sequence (Q96RU2 1-1077): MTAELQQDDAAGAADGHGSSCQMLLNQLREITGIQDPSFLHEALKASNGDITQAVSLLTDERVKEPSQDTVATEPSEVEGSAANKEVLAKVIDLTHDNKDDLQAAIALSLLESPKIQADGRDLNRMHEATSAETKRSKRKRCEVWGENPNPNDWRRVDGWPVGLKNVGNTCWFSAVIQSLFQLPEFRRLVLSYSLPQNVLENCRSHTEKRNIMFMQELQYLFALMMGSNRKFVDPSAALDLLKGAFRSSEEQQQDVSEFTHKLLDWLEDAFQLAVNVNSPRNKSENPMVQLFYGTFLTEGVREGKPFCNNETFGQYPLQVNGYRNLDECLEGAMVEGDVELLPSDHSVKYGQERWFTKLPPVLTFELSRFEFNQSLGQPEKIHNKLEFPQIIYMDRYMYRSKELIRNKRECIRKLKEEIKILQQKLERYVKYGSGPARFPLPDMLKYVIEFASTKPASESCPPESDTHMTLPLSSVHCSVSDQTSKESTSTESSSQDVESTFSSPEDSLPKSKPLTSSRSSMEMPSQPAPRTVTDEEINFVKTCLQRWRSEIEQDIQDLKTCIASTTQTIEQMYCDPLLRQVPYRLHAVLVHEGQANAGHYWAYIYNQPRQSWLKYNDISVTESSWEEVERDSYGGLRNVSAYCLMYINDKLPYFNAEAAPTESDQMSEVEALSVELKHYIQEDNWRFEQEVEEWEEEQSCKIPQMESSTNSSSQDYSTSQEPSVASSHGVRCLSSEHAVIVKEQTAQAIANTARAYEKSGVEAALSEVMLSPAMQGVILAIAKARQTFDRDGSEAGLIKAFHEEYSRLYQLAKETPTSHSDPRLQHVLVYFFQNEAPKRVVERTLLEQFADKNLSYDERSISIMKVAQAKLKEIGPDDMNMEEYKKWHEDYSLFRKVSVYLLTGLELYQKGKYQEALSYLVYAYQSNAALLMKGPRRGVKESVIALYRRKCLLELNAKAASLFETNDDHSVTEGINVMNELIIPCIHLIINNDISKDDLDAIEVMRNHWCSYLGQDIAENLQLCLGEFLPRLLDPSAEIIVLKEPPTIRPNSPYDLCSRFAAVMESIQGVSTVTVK
Format: biochemical
Outline: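 Full-length His-tagged USP28 (1-1077, Expi293F-expressed; […]) was preincubated 30 min with compound (25 μM–1.3 nM, 10-point 3-fold) in 20 mM Tris-HCl pH 8.0, 3 mM BME, 0.03% BGG, 0.01% Triton X-100. Ub-Rh110 (25 nM) was then added for 45 min at room temperature, stopped with citric acid, and read by fluorescence (485/535 nm).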

`Cc1cnc2c(N)c(C(=O)N[C@H]3CCc4cc(N5CCNC[C@@H](O)C5)ccc4C3)sc2n1` (single isomer, unassigned) [Example 7-4] and `Cc1cnc2c(N)c(C(=O)N[C@@H]3CCc4cc(N5CCNC[C@@H](O)C5)ccc4C3)sc2n1` (single isomer, unassigned) [Example 7-5] fall in the same range of IC50: 50 to 200 nM for the first, 50 to 200 nM for the second.

`Cc1cnc2c(N)c(C(=O)N[C@H]3CCc4cc(N5CCNC[C@H](O)C5)ccc4C3)sc2n1` (single isomer, unassigned) [Example 7-6] and `Cc1cnc2c(N)c(C(=O)N[C@@H]3CCc4cc(N5CCNC[C@H](O)C5)ccc4C3)sc2n1` (single isomer, unassigned) [Example 7-7] fall in the same range of IC50: 200 to 2000 nM for the first, 200 to 2000 nM for the second.

`Cc1ccc2c(N)c(C(=O)N[C@H]3CCc4cc(N5CCN[C@H](CO)C5)ccc4C3)sc2n1` (single isomer, unassigned) [Example 7-8] and `Cc1ccc2c(N)c(C(=O)N[C@H]3CCc4cc(N5CCN[C@@H](CO)C5)ccc4C3)sc2n1` (single isomer, unassigned) [Example 7-9] fall in the same range of IC50: 200 to 2000 nM for the first, 200 to 2000 nM for the second.

`Cc1ccc2c(N)c(C(=O)N[C@@H]3CCc4cc(N5CCN[C@H](CO)C5)ccc4C3)sc2n1` (single isomer, unassigned) [Example 7-10] and `Cc1ccc2c(N)c(C(=O)N[C@@H]3CCc4cc(N5CCN[C@@H](CO)C5)ccc4C3)sc2n1` (single isomer, unassigned) [Example 7-11] fall in the same range of IC50: 50 to 200 nM for the first, 50 to 200 nM for the second.

`Cc1ccc2c(N)c(C(=O)N[C@H]3COc4cc(O[C@@H]5COC6(CNC6)C5)ccc4C3)sc2n1` (single isomer, unassigned) [Example 9-1] and `Cc1ccc2c(N)c(C(=O)N[C@H]3COc4cc(O[C@H]5COC6(CNC6)C5)ccc4C3)sc2n1` (single isomer, unassigned) [Example 9-2] fall in the same range of IC50: 1 to 50 nM for the first, 1 to 50 nM for the second.

First: CO[C@H]1CN(c2cc(F)c3c(c2)OC[C@H](NC(=O)c2sc4nc(C)ccc4c2N)C3)C[C@@H]1N (single isomer, unassigned) [Example 10-3]
Second: Cc1ccc2c(N)c(C(=O)N[C@H]3CCc4cc(N5CCNCC5)cc(F)c4C3)sc2n1 (single isomer, unassigned) [Example 11-11]
The IC50 of the first is lower: 1 to 50 nM for the first, 200 to 2000 nM for the second. The first is the more potent here.

First: Cc1nc2sc(C(=O)N[C@H]3CCc4cc(N5CC6CCC(C5)N6)ccc4C3)c(N)c2cc1F (single isomer, unassigned) [Example 11-3]
Second: Cc1nc2sc(C(=O)N[C@@H]3CCc4cc(N5CC6CCC(C5)N6)ccc4C3)c(N)c2cc1F (single isomer, unassigned) [Example 11-4]
The IC50 of the first is higher: 50 to 200 nM for the first, 1 to 50 nM for the second.

First: COc1ccc2c(N)c(C(=O)N[C@H]3CCc4cc(N5CC6CCC(C5)N6)ccc4C3)sc2n1 (single isomer, unassigned) [Example 11-5]
Second: COc1ccc2c(N)c(C(=O)N[C@@H]3CCc4cc(N5CC6CCC(C5)N6)ccc4C3)sc2n1 (single isomer, unassigned) [Example 11-6]
The IC50 of the first is lower: 1 to 50 nM for the first, 200 to 2000 nM for the second. The first is the more potent here.

Compared with `Cc1cnc2c(N)c(C(=O)N[C@H]3CCc4cc(N5CC6CCC(C5)N6)ccc4C3)sc2n1` (single isomer, unassigned) [Example 11-7], `Cc1cnc2c(N)c(C(=O)N[C@@H]3CCc4cc(N5CC6CCC(C5)N6)ccc4C3)sc2n1` (single isomer, unassigned) [Example 11-8] is higher in IC50: 50 to 200 nM for the first, 200 to 2000 nM for the second.

First: CCn1ccc2cc(C(=O)N[C@H]3CCc4cc(N5CC6CCC(C5)N6)ccc4C3)cnc21 (single isomer, unassigned) [Example 11-9]
Second: CCn1ccc2cc(C(=O)N[C@@H]3CCc4cc(N5CC6CCC(C5)N6)ccc4C3)cnc21 (single isomer, unassigned) [Example 11-10]
The IC50 of the first is higher: 200 to 2000 nM for the first, 50 to 200 nM for the second. The second is the more potent here.

First: Cc1ccc2c(N)c(C(=O)N[C@@H]3CCc4cc(N5CCNCC5)cc(F)c4C3)sc2n1 (single isomer, unassigned) [Example 11-12]
Second: Cc1cnc2c(N)c(C(=O)N[C@H]3CCc4cc(N5CC6CCC(C5)N6)cc(F)c4C3)sc2n1 (single isomer, unassigned) [Example 11-13]
The IC50 of the first is lower: 1 to 50 nM for the first, 200 to 2000 nM for the second.

First: Cc1cnc2c(N)c(C(=O)N[C@@H]3CCc4cc(N5CC6CCC(C5)N6)cc(F)c4C3)sc2n1 (single isomer, unassigned) [Example 11-14]
Second: CCn1ccc2cc(C(=O)N[C@@H]3CCc4cc(N5CC6CCC(C5)N6)ccc4C3)nnc21 (single isomer, unassigned) [Example 11-23]
The IC50 of the first is lower: 1 to 50 nM for the first, 200 to 2000 nM for the second. The first is the more potent here.

First: Cc1ccc2c(N)c(C(=O)N[C@@H]3COc4cc(N5CCNCC5)ccc4[C@@H]3C)sc2n1 (single isomer, unassigned) [Example 11-18]
Second: CCn1ccc2cc(C(=O)N[C@H]3CCc4cc(N5CC6CCC(C5)N6)ccc4C3)nnc21 (single isomer, unassigned) [Example 11-24]
The IC50 of the first is higher: greater than 2000 nM for the first, 200 to 2000 nM for the second.

Same assay, conditions: Ubiquitin-Rhodamine 110 assay, format Example A-1(a); read-out: USP28 A-1(a) IC50 range

Compared with `Cc1ccc2c(N)c(C(=O)N[C@H]3CCc4cc(N5C6CNCC5C6)ccc4C3)sc2n1` (single isomer, unassigned) [Example 11-35], `Cc1ccc2c(N)c(C(=O)N[C@@H]3CCc4cc(N5C6CNCC5C6)ccc4C3)sc2n1` (single isomer, unassigned) [Example 11-36] is higher in IC50: 1 to 50 nM for the first, 200 to 2000 nM for the second.

Compared with `Cc1nc2sc(C(=O)N[C@H]3CCc4cc(N5CC6CCC(C5)N6)ccc4C3)c(N)c2s1` (single isomer, unassigned) [Example 12-1], `Cc1ccc2c(N)c(C(=O)N[C@@H]3CCc4cc(N5CC6CCC(C5)N6)c(F)cc4C3)sc2n1` (single isomer, unassigned) [Example 21-3] is lower in IC50: 200 to 2000 nM for the first, 1 to 50 nM for the second.

Compared with `Cc1ccc2c(N)c(C(=O)N[C@H]3COc4c(F)c(N5CC6CCC(C5)N6)cc(F)c4C3)sc2n1` (single isomer, unassigned) [Example 13-1], `Cc1ccc2c(N)c(C(=O)N[C@@H]3COc4c(F)c(N5CC6CCC(C5)N6)cc(F)c4C3)sc2n1` (single isomer, unassigned) [Example 13-2] is higher in IC50: 1 to 50 nM for the first, 200 to 2000 nM for the second.

`Cc1ccc2c(N)c(C(=O)N[C@@H]3COc4cc(N5CCNCC5)c(Cl)cc4C3)sc2n1` (single isomer, unassigned) [Example 13-6] and `Cc1ccc2c(N)c(C(=O)N[C@@H]3CCc4c(ccc(N5CCNCC5)c4F)C3)sc2n1` (single isomer, unassigned) [Example 21-5] fall in the same range of IC50: 1 to 50 nM for the first, 1 to 50 nM for the second.

First: Cc1nc2sc(C(=O)N[C@@H]3CCc4c(C#N)c(N5CC6CCC(C5)N6)cc(F)c4C3)c(N)c2s1 (single isomer, unassigned) [Example 14-22]
Second: Cc1ccc2c(N)c(C(=O)N[C@@H]3CCc4c(ccc(N5CC6CCC(C5)N6)c4F)C3)sc2n1 (single isomer, unassigned) [Example 21-1]
The IC50 of the first is higher: 200 to 2000 nM for the first, 50 to 200 nM for the second. The second is the more potent here.

First: Cc1ccc2c(N)c(C(=O)N[C@@H]3CCc4cc(N5CCNCC5)cnc4C3)sc2n1 (single isomer, unassigned) [Example 15-1]
Second: Cc1ccc2c(N)c(C(=O)N[C@H]3CCc4cc(N5CCNCC5)cnc4C3)sc2n1 (single isomer, unassigned) [Example 15-2]
The IC50 of the first is higher: greater than 2000 nM for the first, 200 to 2000 nM for the second. The second is the more potent here.

Compared with `Cc1ccc2c(N)c(C(=O)N[C@H]3CCc4c(ccc(N5CC6CCC(C5)N6)c4F)C3)sc2n1` (single isomer, unassigned) [Example 21-2], `Cc1ccc2c(N)c(C(=O)N[C@H]3CCc4cc(N5CC6CCC(C5)N6)c(F)cc4C3)sc2n1` (single isomer, unassigned) [Example 21-4] is higher in IC50: 1 to 50 nM for the first, 200 to 2000 nM for the second. The first is the more potent here.

With `Cc1ccc2c(N)c(C(=O)N[C@H]3CCc4c(ccc(N5CCNCC5)c4F)C3)sc2n1` (single isomer, unassigned) [Example 21-6] the IC50 was 200 to 2000 nM.
